Source: a compilation of properties of binary mixtures (doi:10.1007/s10953-014-0257-1)

Test: xn = mol fraction of the nth substance listed
Details: 101 kPa

## c1ccc2sccc2c1 + CCCC[N+]1(C)CCCC1.N#C[C-](C#N)C#N
308.15 K, x1 = 1
  viscosity: 2.94 mPa·s
318.15 K, x1 = 1
  viscosity: 2.06 mPa·s
328.15 K, x1 = 1
  viscosity: 1.74 mPa·s
338.15 K, x1 = 1
  viscosity: 1.49 mPa·s
348.15 K, x1 = 1
  viscosity: 1.29 mPa·s
358.15 K, x1 = 1
  viscosity: 1.14 mPa·s

## CCCC[N+]1(C)CCCC1.N#C[C-](C#N)C#N + c1ccc2sccc2c1
308.15 K, x2 = 0.1112
  viscosity: 18.8 mPa·s
308.15 K, x2 = 0.2212
  viscosity: 17 mPa·s
308.15 K, x2 = 0.3565
  viscosity: 14.78 mPa·s
308.15 K, x2 = 0.6111
  viscosity: 10.45 mPa·s
308.15 K, x2 = 0.6767
  viscosity: 9.23 mPa·s
318.15 K, x2 = 0
  viscosity: 15.44 mPa·s
318.15 K, x2 = 0.1112
  viscosity: 14.1 mPa·s
318.15 K, x2 = 0.2212
  viscosity: 12.77 mPa·s
318.15 K, x2 = 0.3565
  viscosity: 11.13 mPa·s
318.15 K, x2 = 0.5267
  viscosity: 9.01 mPa·s
318.15 K, x2 = 0.6111
  viscosity: 7.87 mPa·s
318.15 K, x2 = 0.6767
  viscosity: 6.89 mPa·s
328.15 K, x2 = 0
  viscosity: 12 mPa·s
328.15 K, x2 = 0.1112
  viscosity: 10.97 mPa·s
328.15 K, x2 = 0.2212
  viscosity: 9.95 mPa·s
328.15 K, x2 = 0.3565
  viscosity: 8.69 mPa·s
328.15 K, x2 = 0.6111
  viscosity: 6.19 mPa·s
328.15 K, x2 = 0.6767
  viscosity: 5.41 mPa·s
338.15 K, x2 = 0
  viscosity: 9.59 mPa·s
338.15 K, x2 = 0.1112
  viscosity: 8.77 mPa·s
338.15 K, x2 = 0.2212
  viscosity: 7.96 mPa·s
338.15 K, x2 = 0.5267
  viscosity: 5.68 mPa·s
338.15 K, x2 = 0.6111
  viscosity: 4.98 mPa·s
338.15 K, x2 = 0.6767
  viscosity: 4.36 mPa·s
348.15 K, x2 = 0
  viscosity: 7.81 mPa·s
348.15 K, x2 = 0.1112
  viscosity: 7.16 mPa·s
348.15 K, x2 = 0.2212
  viscosity: 6.49 mPa·s
348.15 K, x2 = 0.3565
  viscosity: 5.67 mPa·s
348.15 K, x2 = 0.5267
  viscosity: 4.65 mPa·s
348.15 K, x2 = 0.6111
  viscosity: 4.1 mPa·s
348.15 K, x2 = 0.6767
  viscosity: 3.59 mPa·s
358.15 K, x2 = 0
  viscosity: 6.47 mPa·s
358.15 K, x2 = 0.1112
  viscosity: 5.93 mPa·s
358.15 K, x2 = 0.2212
  viscosity: 5.38 mPa·s
358.15 K, x2 = 0.3565
  viscosity: 4.74 mPa·s
358.15 K, x2 = 0.5267
  viscosity: 3.88 mPa·s
358.15 K, x2 = 0.6111
  viscosity: 3.44 mPa·s
358.15 K, x2 = 0.6767
  viscosity: 3.03 mPa·s
